Experimental data as given in ChEMBL document CHEMBL1141961, “Identification of coumarin derivatives as a novel class of allosteric MEK1 inhibitors” (Bioorg Med Chem Lett, 2005).
Activity calls are given as the source filed them. The calls are words filed in the database; no cut-off is given here.

How the values were obtained:
[1] = target: T1, Dual specificity mitogen-activated protein kinase kinase 1 (Homo sapiens, UniProt Q02750); test: Inhibition of ERK phosphorylation in THP1 cells; format: functional, cell-based; conditions: THP-1
[2] = Inhibition of LPS-induced TNFalpha production in human monocyte THP1 cells; format: functional, cell-based; conditions: THP-1
[3] = Inhibition of human MEK1 activation by COT in COT-MEK-ERK coupling assay
[4] = target: T1, Dual specificity mitogen-activated protein kinase kinase 1; test: Inhibition of activated human MEK1 in MEK-ERK coupling assay
[5] = target: T1, Dual specificity mitogen-activated protein kinase kinase 1; test: Inhibition of human MEK1 activation by bRaf in RAF-MEK-ERK coupling assay
[6] = target: T1, Dual specificity mitogen-activated protein kinase kinase 1; test: Inhibition of activated human MEK1 in MEK-ERK coupling assay at 10 uM

T1 sequence (Q02750 whole entry): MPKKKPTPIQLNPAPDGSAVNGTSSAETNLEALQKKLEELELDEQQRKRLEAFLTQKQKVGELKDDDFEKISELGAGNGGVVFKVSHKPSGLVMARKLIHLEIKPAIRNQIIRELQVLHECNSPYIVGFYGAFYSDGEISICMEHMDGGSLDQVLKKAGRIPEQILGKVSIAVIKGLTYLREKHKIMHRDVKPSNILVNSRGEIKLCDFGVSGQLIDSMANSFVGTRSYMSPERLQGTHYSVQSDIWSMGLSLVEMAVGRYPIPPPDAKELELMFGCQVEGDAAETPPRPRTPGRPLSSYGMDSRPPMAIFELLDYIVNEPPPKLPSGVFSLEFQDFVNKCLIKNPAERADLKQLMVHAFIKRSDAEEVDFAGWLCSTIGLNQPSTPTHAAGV

Row | Compound | Activity [1] | IC50 [2] | IC50 [3] | IC50 [4] | IC50 [5] | Activity [6]
1 | Cc1c(Cc2ccccc2)c(=O)oc2cc(OC(=O)N(C)C)c(Cl)cc12 | Active | 90 nM | 70 nM | 10 µM |  | 
2 | Cc1c(Cc2ccc(F)cc2)c(=O)oc2cc(OC(=O)N(C)C)ccc12 | Active | 200 nM | 300 nM |  | 300 nM | inactive
3 | Cc1c(Cc2ccccc2)c(=O)oc2cc(OC(=O)C3CC3)ccc12 |  |  | 200 nM |  | 200 nM | inactive
